Data from patent US9096639B2, “17-hydroxy-17-pentafluorethyl-estra-4,9(10)-dien-11-acyloxyalkylene phenyl derivatives, methods for the production thereof and use thereof for treating diseases” (Bayer Intellectual Property GmbH, priority 2009, dated 2015).

Experiments:
[1] = Determination of stability in rat plasma; type: in vitro ADME; conditions: 37° C., read-out: Stability t1/2 in rat plasma (converted)
Procedure: (§1) A stock solution of 1.0 mg of the substance to be tested in a 9:1 mixture of acetonitrile and dimethyl sulphoxide was prepared. 20 μl of this stock solution were added at 37° C. to 1 ml of human plasma or rat plasma. To determine the content, 100 μl samples were each taken at different times. The enzyme activity was blocked by adding 300 μl of acetonitrile, the samples were centrifuged at 5000 rpm over 10 minutes and, in the supernatant, the content of ester and hydrolysis products (8S,11R,13S,14S,17S)-17-hydroxy-11-[4-((R)-1-hydroxyethyl)phenyl]-1 3-methyl-17-pentafluoroethyl-1,2,6,7,8,11,12,13,14,15,16,17-dodecahydrocyclopenta[a]phenanthren-3-one and/or (8S,11R,13S,14S,17S)-17-hydroxy-11-[4-((S)-1-hydroxyethyl)phenyl]-13-methyl-17-pentafluoroethyl-1,2,6,7,8,11,12,13,14,15,16,17-dodecahydrocyclopenta[a]phenanthrene-3-one was determined by HPLC. The concentration-time curves were used to calculate the degradation kinetics. The stability of the substance tested was reported as the half-life.

[2] = Determination of hydrolytic stability (5:1 dioxane/buffer, HPLC); type: physicochemical; conditions: 5:1 dioxane/buffer solution, test ended after 24 or 192 hours, read-out: Hydrolytic stability t1/2
Procedure: The ester to be analyzed was dissolved in each case in a 5:1 mixture of dioxane and buffer solution (pH 1.2, pH 5.0 or pH 8.0) at 23° C. At different times, the content of ester and hydrolysis products (8S,11R,13S,14S,1 7S)-17-hydroxy-11-[4-((R)-1-hydroxyethyl)phenyl]-13-methyl-17-pentafluoroethyl-1,2,6,7,8,11,12,13,14,15,16,17-dodecahydrocyclopenta[a]phenanthren-3-one and/or (8S,11R,13S,14S,17S)-17-hydroxy-11-[4-((S)-1-hydroxyethyl)phenyl]-1 3-methyl-17-pentafluoroethyl-1,2,6,7,8,11,12,13,14,15,16,17-dodecahydrocyclopenta[a]phenanthren-3-one was determined by HPLC. The test was ended after 24 hours or 192 hours.

[3] = Determination of stability in human plasma; type: in vitro ADME
Procedure: as §1

[4] = biological target: T1, human progesterone receptor A (Homo sapiens, UniProt P06401); experiment: Progesterone receptor transactivation test in stably transfected SK-N-MC cells (PR-A, MMTV-LUC reporter); type: cell-based; conditions: 0.1 nmol/l promegestone, 24 hours, read-out: PR-A IC50 (antagonistic potency)
T1 construct: expressed in transfected cells; host or cells: SK-N-MC human neuroblastoma cells, stably transfected with pRChPR-A-neo and pMMTV-LUC
T1 sequence (P06401 1-769 isoform P06401-2): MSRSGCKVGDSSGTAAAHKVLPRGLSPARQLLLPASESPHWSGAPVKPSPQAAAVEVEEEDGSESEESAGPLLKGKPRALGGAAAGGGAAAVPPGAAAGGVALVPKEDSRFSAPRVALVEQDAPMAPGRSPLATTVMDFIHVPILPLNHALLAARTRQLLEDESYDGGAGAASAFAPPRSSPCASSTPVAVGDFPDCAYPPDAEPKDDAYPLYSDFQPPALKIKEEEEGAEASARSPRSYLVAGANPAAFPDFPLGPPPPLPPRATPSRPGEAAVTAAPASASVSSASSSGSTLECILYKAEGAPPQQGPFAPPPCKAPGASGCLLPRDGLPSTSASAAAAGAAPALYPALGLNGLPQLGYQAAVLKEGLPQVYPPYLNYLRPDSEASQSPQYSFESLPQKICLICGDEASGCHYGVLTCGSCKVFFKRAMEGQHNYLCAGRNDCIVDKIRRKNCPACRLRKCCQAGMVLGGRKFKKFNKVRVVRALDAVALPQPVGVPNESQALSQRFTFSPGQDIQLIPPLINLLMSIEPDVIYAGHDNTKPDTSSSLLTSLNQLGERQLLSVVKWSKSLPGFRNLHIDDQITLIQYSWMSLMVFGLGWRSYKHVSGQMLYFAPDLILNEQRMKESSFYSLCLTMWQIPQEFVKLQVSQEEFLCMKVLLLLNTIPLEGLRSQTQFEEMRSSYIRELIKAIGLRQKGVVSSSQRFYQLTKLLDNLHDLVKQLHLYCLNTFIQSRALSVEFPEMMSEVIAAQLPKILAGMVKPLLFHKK
Procedure: Progesterone receptor-antagonistic action in stable transfectants of human neuroblastoma cells (SK-N-MC cells) with the human progesterone A or progesterone B receptor and an MN-LUC reporter construct SK-N-MC cells (human neuroblastoma cells) which have been stably transfected with plasmids expressing the human progesterone receptor B (pRChPR-B-neo) or the human progesterone receptor A (pRChPR-A-neo) and a reporter construct (pMMTV-LUC) were incubated for 24 hours either in the absence (negative control) or in the presence of ascending amounts of the particular test compound (0.01 nmol/l, 0.1 nmol/l, 1 […], 100 nmol/l and […]), in order to determine the agonistic efficacy. As a positive control of the reporter gene induction, the cells were treated with the synthetic gestagen promegestone (0.01 nmol/l, 0.1 nmol/l, 1 nmol/l, 10 nmol/l, 100 nmol/l and […]). To determine the antagonistic activity, the cells were treated with 0.1 nmol/l promegestone and additionally with ascending amounts of the particular test compound (0.01 nmol/l, 0.1 nmol/l, 1 nmol/l, 10 nmol/l, 100 nmol/l and […]). The activity of the reporter gene LUC (LUC=luciferase) was determined in the cell lysates and measured as RLU (relative light units). All measurements are reported as % efficacy and as EC50 and IC50 concentrations.

[5] = Determination of hydrolytic stability in synthetic gastric juice (pH 1.2 buffer with pepsin); type: in vitro ADME; conditions: 37° C., pH 1.2 with added pepsin, test ended after 24 hours, read-out: Hydrolytic stability t1/2 in synthetic gastric juice (converted)
Procedure: The esters to be analyzed were dissolved in each case in a buffer solution of pH 1.2 with added pepsin at 37° C. At different times, the content of ester and hydrolysis products (8S,11R,13S,14S,17S)-17-hydroxy-11-[4-((R)-1-hydroxyethyl)phenyl]-1 3-methyl-17-pentafluoroethyl-1,2,6,7,8,11,12,13,14,15,16,17-dodecahydrocyclopenta[a]phenanthren-3-one and/or (8S,11R,13S,14S,17S)-17-hydroxy-11-[4-((S)-1-hydroxyethyl)phenyl]-13-methyl-17-pentafluoroethyl-1,2,6,7,8,11,12,13,14,15,16,17-dodecahydrocyclopenta[a]phenanthren-3-one was determined by HPLC. The test was ended after 24 hours.

[6] = 37° C., read-out: Stability t1/2 in human plasma (converted)
[7] = method of working example 19, summary statement in description, read-out: half-life in human plasma

Row | Structure (SMILES) | half-life [1] [h] | half-life ([2]; pH = 1.2, 23° C.) [h] | half-life ([2]; pH = 5.0, 23° C.) [h] | half-life ([2]; pH = 8.0, 23° C.) [h] | half-life [3, 6] [h] | half-life [3, 7] [h] | IC50 [4] [nM] | half-life [5] [h]
1 | CC(C)C(=O)OC(C)c1ccc([C@H]2C[C@@]3(C)C(CC[C@@]3(O)C(F)(F)C(F)(F)F)C3CCC4=CC(=O)CCC4=C32)cc1 (mixture of isomers) [Example 2, Isobutyric acid (RS)-1-[4-((8S,11R,13S,14S,17S)-17-hydroxy-13-methyl-3-oxo-17-pentafluoroethyl-2,3,6,7,8,11,12,13,14,15,16,17-dodecahydro-1H-cyclopenta[a]-phenanthren-11-yl)phenyl]ethyl ester] | 33.4 | > 24 | > 24 | > 24 | 803 | > 100 | 0.1 | > 24
2 | CC(OC(=O)[C@@H](NC(=O)OC(C)(C)C)C(C)C)c1ccc([C@H]2C[C@@]3(C)C(CC[C@@]3(O)C(F)(F)C(F)(F)F)C3CCC4=CC(=O)CCC4=C32)cc1 (mixture of isomers) [Example 5, (S)-2-tert-Butoxycarbonylamino-3-methylbutyric acid (RS)-1-[4-((8S,11R,-13S,14S,17S)-17-hydroxy-13-methyl-3-oxo-17-pentafluoroethyl-2,3,6,7,8,11,12,13,14,15,-16,17-dodecahydro-1H-cyclopenta[a]phenanthren-11-yl)phenyl]ethyl ester] | 156 | > 192 | > 192 | > 192 | > 1000 | > 100 | 0.3 | 3
3 | CC(OC(=O)[C@H](C)NC(=O)OC(C)(C)C)c1ccc([C@H]2C[C@@]3(C)C(CC[C@@]3(O)C(F)(F)C(F)(F)F)C3CCC4=CC(=O)CCC4=C32)cc1 (mixture of isomers) [Example 7, (S)-2-tert-Butoxycarbonylaminopropionic acid (RS)-1-[4-((8S,11R,13S,-14S,17S)-17-hydroxy-13-methyl-3-oxo-17-pentafluoroethyl-2,3,6,7,8,11,12,13,14,15,16,17-dodecahydro-1H-cyclopenta[a]phenanthren-11-yl)phenyl]ethyl ester] | 3.1 | > 24 | > 24 | > 24 | > 1000 | > 100 | 0.14 | 4.4
4 | CC(OC(=O)[C@@H](C)NC(=O)OC(C)(C)C)c1ccc([C@H]2C[C@@]3(C)[C@@H](CC[C@@]3(O)C(F)(F)C(F)(F)F)[C@@H]3CCC4=CC(=O)CCC4=C32)cc1 (mixture of isomers) [Example 6, (R)-2-tert-Butoxycarbonylaminopropionic acid (RS)-1-[4-((8S,11R,13S,-14S,17S)-17-hydroxy-13-methyl-3-oxo-17-pentafluoroethyl-2,3,6,7,8,11,12,13,14,15,16,17-dodecahydro-1H-cyclopenta[a]phenanthren-11-yl)phenyl]ethyl ester] | 43.9 | > 24 | > 24 | > 24 | 491 | > 100 | 0.1 | 5.4

Results, then the compound that gave them:

Row | half-life [1] [h] | half-life ([2]; pH = 1.2, 23° C.) [h] | half-life ([2]; pH = 5.0, 23° C.) [h] | half-life ([2]; pH = 8.0, 23° C.) [h] | half-life [3, 6] [h] | half-life [3, 7] [h] | IC50 [4] [nM] | half-life [5] [h] | Structure (SMILES)
5 | 89 | > 24 | > 24 | > 24 | > 1000 | > 100 | 0.21 | > 24 | CC(C)CC(=O)OC(C)c1ccc([C@H]2C[C@@]3(C)C(CC[C@@]3(O)C(F)(F)C(F)(F)F)C3CCC4=CC(=O)CCC4=C32)cc1 (mixture of isomers) [Example 3, 3-Methylbutyric acid (RS)-1-[4-((8S,11R,13S,14S,17S)-17-hydroxy-13-methyl-3-oxo-17-pentafluoroethyl-2,3,6,7,8,11,12,13,14,15,16,17-dodecahydro-1H-cyclopenta[a]phenanthren-11-yl)phenyl]ethyl ester]
6 | 57.5 | > 24 | > 24 | > 24 | 609 | > 100 | 0.07 | 9.6 | CC(=O)O[C@H](C)c1ccc([C@H]2C[C@@]3(C)C(CC[C@@]3(O)C(F)(F)C(F)(F)F)C3CCC4=CC(=O)CCC4=C32)cc1 (mixture of isomers) [Example 1, acetic acid (RS)-1-[4-((8S,11R,13S,14S,17S)-17-hydroxy-13-methyl-3-oxo-17-pentafluoroethyl-2,3,6,7,8,11,12,13,14,15,16,17-dodecahydro-1H-cyclopenta[a]phenanthren-11-yl)phenyl]ethyl ester]
7 | > 1000 | > 24 | > 24 | > 24 | > 1000 | > 100 | 0.2 | > 24 | CC(OC(=O)CC(C)(C)C)c1ccc([C@H]2C[C@@]3(C)C(CC[C@@]3(O)C(F)(F)C(F)(F)F)C3CCC4=CC(=O)CCC4=C32)cc1 (mixture of isomers) [Example 4, 3,3-Dimethylbutyric acid (RS)-1-[4-((8S,11R,13S,14S,17S)-17-hydroxy-13-methyl-3-oxo-17-pentafluoroethyl-2,3,6,7,8,11,12,13,14,15,16,17-dodecahydro-1H-cyclopenta[a]phenanthren-11-yl)phenyl]ethyl ester]
